Data reported in the NIST ThermoML archive (doi:10.1021/je060210c).

Columns and labels:
[1] = excess molar enthalpy (molar enthalpy of mixing); xn = mol fraction of the nth substance listed; conditions: 101 kPa, Liquid
[2] = xn = mol fraction of the nth substance listed; conditions: 101 kPa, Liquid; for speed of sound: Sing-around technique in a fixed-path interferometer

C=C1CCC2CC1C2(C)C (stereo not drawn) [β-pinene] + CCCC(C)O
Conditions | excess molar enthalpy [kJ/mol] | mass density [kg/m3] | speed of sound [m/s]
[1], 283.15 K, x1 = 0.049 | 0.125 | – | –
[1], 283.15 K, x1 = 0.1 | 0.264 | – | –
[1], 283.15 K, x1 = 0.193 | 0.49 | – | –
[1], 283.15 K, x1 = 0.294 | 0.683 | – | –
[1], 283.15 K, x1 = 0.395 | 0.811 | – | –
[1], 283.15 K, x1 = 0.495 | 0.878 | – | –
[1], 283.15 K, x1 = 0.591 | 0.878 | – | –
[1], 283.15 K, x1 = 0.695 | 0.81 | – | –
[1], 283.15 K, x1 = 0.794 | 0.704 | – | –
[1], 283.15 K, x1 = 0.9 | 0.514 | – | –
[1], 283.15 K, x1 = 0.942 | 0.385 | – | –
[1], 283.15 K, x1 = 0.971 | 0.276 | – | –
[1], 283.15 K, x1 = 0.985 | 0.149 | – | –
[1], 298.15 K, x1 = 0.049 | 0.16 | – | –
[1], 298.15 K, x1 = 0.1 | 0.336 | – | –
[1], 298.15 K, x1 = 0.193 | 0.622 | – | –
[1], 298.15 K, x1 = 0.294 | 0.862 | – | –
[1], 298.15 K, x1 = 0.395 | 1.02 | – | –
[1], 298.15 K, x1 = 0.495 | 1.1 | – | –
[1], 298.15 K, x1 = 0.591 | 1.1 | – | –
[1], 298.15 K, x1 = 0.695 | 1.06 | – | –
[1], 298.15 K, x1 = 0.794 | 0.938 | – | –
[1], 298.15 K, x1 = 0.9 | 0.719 | – | –
[1], 298.15 K, x1 = 0.942 | 0.52 | – | –
[1], 298.15 K, x1 = 0.971 | 0.366 | – | –
[1], 298.15 K, x1 = 0.985 | 0.189 | – | –
[1], 313.15 K, x1 = 0.049 | 0.209 | – | –
[1], 313.15 K, x1 = 0.1 | 0.413 | – | –
[1], 313.15 K, x1 = 0.193 | 0.749 | – | –
[1], 313.15 K, x1 = 0.294 | 1.03 | – | –
[1], 313.15 K, x1 = 0.395 | 1.21 | – | –
[1], 313.15 K, x1 = 0.495 | 1.32 | – | –
[1], 313.15 K, x1 = 0.591 | 1.34 | – | –
[1], 313.15 K, x1 = 0.695 | 1.31 | – | –
[1], 313.15 K, x1 = 0.794 | 1.2 | – | –
[1], 313.15 K, x1 = 0.9 | 0.88 | – | –
[1], 313.15 K, x1 = 0.942 | 0.642 | – | –
[1], 313.15 K, x1 = 0.971 | 0.405 | – | –
[1], 313.15 K, x1 = 0.985 | 0.185 | – | –
[2], 283.15 K, x1 = 0.104 | – | 824.99 | 1291.4
[2], 283.15 K, x1 = 0.2047 | – | 832.2 | 1295.3
[2], 283.15 K, x1 = 0.3071 | – | 839.03 | 1299.3
[2], 283.15 K, x1 = 0.3997 | – | 844.95 | 1303.5
[2], 283.15 K, x1 = 0.4964 | – | 850.86 | 1308.8
[2], 283.15 K, x1 = 0.6058 | – | 857.28 | 1316.2
[2], 283.15 K, x1 = 0.6929 | – | 862.26 | 1323.1
[2], 283.15 K, x1 = 0.8016 | – | 868.23 | 1332.7
[2], 283.15 K, x1 = 0.904 | – | 873.67 | 1342.4
[2], 283.15 K, x1 = 0.9454 | – | 875.83 | 1346.8
[2], 298.15 K, x1 = 0.1056 | – | 812.89 | 1235
[2], 298.15 K, x1 = 0.2051 | – | 819.88 | 1238.6
[2], 298.15 K, x1 = 0.3052 | – | 826.49 | 1241.5
[2], 298.15 K, x1 = 0.4038 | – | 832.72 | 1245.8
[2], 298.15 K, x1 = 0.5068 | – | 838.99 | 1251.5
[2], 298.15 K, x1 = 0.601 | – | 844.56 | 1257.8
[2], 298.15 K, x1 = 0.695 | – | 849.94 | 1265
[2], 298.15 K, x1 = 0.8014 | – | 855.84 | 1273.7
[2], 298.15 K, x1 = 0.9001 | – | 861.15 | 1282.7
[2], 298.15 K, x1 = 0.9499 | – | 863.9 | 1288.2
[2], 313.15 K, x1 = 0.1069 | – | 800.02 | 1170.1
[2], 313.15 K, x1 = 0.1981 | – | 806.39 | 1173.2
[2], 313.15 K, x1 = 0.3039 | – | 813.43 | 1177.7
[2], 313.15 K, x1 = 0.4034 | – | 819.78 | 1182.2
[2], 313.15 K, x1 = 0.5067 | – | 826.14 | 1188.2
[2], 313.15 K, x1 = 0.6023 | – | 831.84 | 1195.1
[2], 313.15 K, x1 = 0.7005 | – | 837.55 | 1203.4
[2], 313.15 K, x1 = 0.7975 | – | 843.07 | 1212.8
[2], 313.15 K, x1 = 0.8956 | – | – | 1223.2
[2], 313.15 K, x1 = 0.8957 | – | 848.53 | –
[2], 313.15 K, x1 = 0.9497 | – | 851.6 | 1229.6

C=C1CCC2CC1C2(C)C (stereo not drawn) [β-pinene] + CCCCCO
Conditions | excess molar enthalpy [kJ/mol] | mass density [kg/m3] | speed of sound [m/s]
[1], 283.15 K, x1 = 0.049 | 0.028 | – | –
[1], 283.15 K, x1 = 0.096 | 0.065 | – | –
[1], 283.15 K, x1 = 0.192 | 0.136 | – | –
[1], 283.15 K, x1 = 0.286 | 0.209 | – | –
[1], 283.15 K, x1 = 0.388 | 0.27 | – | –
[1], 283.15 K, x1 = 0.488 | 0.315 | – | –
[1], 283.15 K, x1 = 0.588 | 0.339 | – | –
[1], 283.15 K, x1 = 0.69 | 0.345 | – | –
[1], 283.15 K, x1 = 0.791 | 0.322 | – | –
[1], 283.15 K, x1 = 0.892 | 0.253 | – | –
[1], 283.15 K, x1 = 0.95 | 0.2 | – | –
[1], 283.15 K, x1 = 0.97 | 0.15 | – | –
[1], 283.15 K, x1 = 0.99 | 0.095 | – | –
[1], 298.15 K, x1 = 0.049 | 0.074 | – | –
[1], 298.15 K, x1 = 0.096 | 0.155 | – | –
[1], 298.15 K, x1 = 0.192 | 0.314 | – | –
[1], 298.15 K, x1 = 0.286 | 0.459 | – | –
[1], 298.15 K, x1 = 0.388 | 0.585 | – | –
[1], 298.15 K, x1 = 0.488 | 0.671 | – | –
[1], 298.15 K, x1 = 0.588 | 0.72 | – | –
[1], 298.15 K, x1 = 0.69 | 0.726 | – | –
[1], 298.15 K, x1 = 0.791 | 0.673 | – | –
[1], 298.15 K, x1 = 0.892 | 0.528 | – | –
[1], 298.15 K, x1 = 0.95 | 0.385 | – | –
[1], 298.15 K, x1 = 0.97 | 0.306 | – | –
[1], 298.15 K, x1 = 0.99 | 0.246 | – | –
[1], 313.15 K, x1 = 0.049 | 0.107 | – | –
[1], 313.15 K, x1 = 0.096 | 0.224 | – | –
[1], 313.15 K, x1 = 0.192 | 0.443 | – | –
[1], 313.15 K, x1 = 0.286 | 0.647 | – | –
[1], 313.15 K, x1 = 0.388 | 0.812 | – | –
[1], 313.15 K, x1 = 0.488 | 0.926 | – | –
[1], 313.15 K, x1 = 0.588 | 0.989 | – | –
[1], 313.15 K, x1 = 0.69 | 0.994 | – | –
[1], 313.15 K, x1 = 0.791 | 0.929 | – | –
[1], 313.15 K, x1 = 0.892 | 0.762 | – | –
[1], 313.15 K, x1 = 0.95 | 0.536 | – | –
[1], 313.15 K, x1 = 0.97 | 0.399 | – | –
[1], 313.15 K, x1 = 0.99 | 0.137 | – | –
[2], 283.15 K, x1 = 0.1075 | – | 830.13 | 1327.7
[2], 283.15 K, x1 = 0.2016 | – | 836.79 | 1328.9
[2], 283.15 K, x1 = 0.3016 | – | 843.32 | 1330.6
[2], 283.15 K, x1 = 0.4028 | – | 849.41 | 1331.6
[2], 283.15 K, x1 = 0.5026 | – | 854.98 | 1333.2
[2], 283.15 K, x1 = 0.6034 | – | 860.24 | 1335.1
[2], 283.15 K, x1 = 0.7014 | – | 865.12 | 1337.8
[2], 283.15 K, x1 = 0.8036 | – | 869.97 | 1341.4
[2], 283.15 K, x1 = 0.9009 | – | 874.43 | 1346.2
[2], 283.15 K, x1 = 0.9481 | – | 876.59 | 1349.3
[2], 298.15 K, x1 = 0.1004 | – | – | 1275
[2], 298.15 K, x1 = 0.1057 | – | 819.15 | –
[2], 298.15 K, x1 = 0.2012 | – | 825.47 | –
[2], 298.15 K, x1 = 0.2024 | – | – | 1275.5
[2], 298.15 K, x1 = 0.3032 | – | 831.91 | –
[2], 298.15 K, x1 = 0.3081 | – | – | 1275.8
[2], 298.15 K, x1 = 0.3975 | – | – | 1275.9
[2], 298.15 K, x1 = 0.4023 | – | 837.67 | –
[2], 298.15 K, x1 = 0.4982 | – | – | 1276.4
[2], 298.15 K, x1 = 0.4984 | – | 842.91 | –
[2], 298.15 K, x1 = 0.6021 | – | 848.24 | 1277.9
[2], 298.15 K, x1 = 0.6945 | – | 852.74 | –
[2], 298.15 K, x1 = 0.696 | – | – | 1279.6
[2], 298.15 K, x1 = 0.7994 | – | 857.65 | –
[2], 298.15 K, x1 = 0.8066 | – | – | 1283
[2], 298.15 K, x1 = 0.8952 | – | – | 1286.9
[2], 298.15 K, x1 = 0.8997 | – | 862.25 | –
[2], 298.15 K, x1 = 0.9465 | – | 864.37 | –
[2], 298.15 K, x1 = 0.9528 | – | – | 1291
[2], 313.15 K, x1 = 0.1007 | – | 807.27 | –
[2], 313.15 K, x1 = 0.1023 | – | – | 1223.7
[2], 313.15 K, x1 = 0.2007 | – | – | 1221.7
[2], 313.15 K, x1 = 0.2048 | – | 814.01 | –
[2], 313.15 K, x1 = 0.3027 | – | 819.95 | –
[2], 313.15 K, x1 = 0.3049 | – | – | 1220.9
[2], 313.15 K, x1 = 0.4019 | – | 825.6 | 1220.4
[2], 313.15 K, x1 = 0.5024 | – | 830.92 | 1220.6
[2], 313.15 K, x1 = 0.5976 | – | 835.75 | 1221.2
[2], 313.15 K, x1 = 0.6977 | – | 840.54 | 1222.1
[2], 313.15 K, x1 = 0.7991 | – | 845.26 | 1224.3
[2], 313.15 K, x1 = 0.9066 | – | 850.18 | 1228.6
[2], 313.15 K, x1 = 0.9468 | – | 852.1 | 1231
